Test results as given in patent US20230263826A1, “Compositions and Methods for Treatment and Prevention of Type 1 Diabetes” (The UAB Research Foundation, priority 2021, published 2023).

Key:
[1] = system: female NOD mice; test: T1D incidence in female NOD mice administered FKGK18 (weekly blood glucose monitoring); type: in vivo, mouse
Experimental: FIGS. 1A-1M show the effects of temporal FKGK18 regimen on T1D incidence and islet phenotype, wherein female NOD mice were administered FKGK18 (20 mg/kg, 3 × weekly) or vehicle (PBS-T) starting at 4 or 8 weeks of age. FIGS. 1A and 1B show diabetes incidence; blood glucose was monitored weekly in the 4-week (FIG. 1A; n = 17 and 15 for PBS-T and FKGK18 groups, respectively) and 8-week (FIG. 1B; n = 15 each in the PBS-T and FKGK18 groups) regimen groups for up to 30 weeks. Two consecutive readings of ≥ 275 mg/dL were recorded as onset of T1D (^†P < 0.05). FIGS. 1C-1F show glucose tolerance test (GTT) results, wherein overnight fasted mice were administered glucose (2 g/kg, i.p.), glucose levels in blood from tail vein were monitored over a 2-hour period, and AUC were generated. FIGS. 1C and 1D show four-week group at 14 weeks of age; n = 5 each in the PBS-T and FKGK18 groups. FIGS. 1E and 1F show eight-week group at 25 weeks of age; n = 7 and 5 for PBS-T and FKGK18 groups, respectively. FIGS. 1G-1I show phenotype parameters in the 8-week regimen group. […] FIGS. 1H and 1I show β Cell mass (PBS-T, n = 15; FKGK18, n = 14) (FIG. 1H) and circulating insulin (n = 15 in each group) (FIG. 1I) were determined at sacrifice (PBS-T, 14-30 weeks of age; FKGK18, 16-36 weeks of age). FIGS. 1J and 1K show islet infiltration; paraffin sections (10 µm) of pancreas were prepared and stained with H&E. Percent infiltration for each islet was calculated as the value of noninfiltrated area subtracted from total islet area (% infiltrate = 100 × [(total area - noninfiltrated area)/(total area)]) using ImageJ software. (PBS-T, n = 14 and 166 islets; FKGK18, n = 15 and 260 islets). […] FIGS. 1L and 1M show islet immune cell phenotype; paraffin sections (10 µm) of pancreas were prepared and stained for CD4+-T cells or B (B220) cells. Data presented are mean ± SEM of CD4+ T cells or B cells per islet. […] Statistical analyses: (FIGS. 1A and 1B) Mantel-Cox test; (FIGS. 1D-1M) Student’s t test.
FIGS. 2A-2E show the effects of FKGK18-withdrawal regimen on T1D incidence and glucose tolerance, wherein female NOD mice were administered FKGK18 (20 mg/kg, 3 × weekly, n = 18) or vehicle (PBS-T, n = 17) starting at 10 days of age and until 14 weeks of age. […] FIGS. 2B and 2D show glucose tolerance test (GTT) results, assessed at 14 (FIG. 2B) and 25 (FIG. 2D) weeks of age (data are presented as mean ± SEM), as described in FIG. 1. FIGS. 2C and 2E show corresponding AUC. […]
Blood glucose levels were measured weekly via tail vein blood draw (2 µL) with Breeze 2 Blood Glucose Monitoring System (Bayer HealthCare). Diabetes incidence was based on 2 consecutive blood glucose readings ≥ 275 mg/dL, at which time the mouse was euthanized. […]

[2] = system: female NOD mice; test: i.p. glucose tolerance test (GTT) in FKGK18-treated NOD mice; type: in vivo, mouse; details: for glucose tolerance vs PBS-T: glucose 2 g/kg i.p.
Experimental: FIGS. 1A-1M show the effects of temporal FKGK18 regimen on T1D incidence and islet phenotype, wherein female NOD mice were administered FKGK18 (20 mg/kg, 3 × weekly) or vehicle (PBS-T) starting at 4 or 8 weeks of age. FIGS. 1A and 1B show diabetes incidence; blood glucose was monitored weekly in the 4-week (FIG. 1A; n = 17 and 15 for PBS-T and FKGK18 groups, respectively) and 8-week (FIG. 1B; n = 15 each in the PBS-T and FKGK18 groups) regimen groups for up to 30 weeks. Two consecutive readings of ≥ 275 mg/dL were recorded as onset of T1D (^†P < 0.05). FIGS. 1C-1F show glucose tolerance test (GTT) results, wherein overnight fasted mice were administered glucose (2 g/kg, i.p.), glucose levels in blood from tail vein were monitored over a 2-hour period, and AUC were generated. FIGS. 1C and 1D show four-week group at 14 weeks of age; n = 5 each in the PBS-T and FKGK18 groups. FIGS. 1E and 1F show eight-week group at 25 weeks of age; n = 7 and 5 for PBS-T and FKGK18 groups, respectively. FIGS. 1G-1I show phenotype parameters in the 8-week regimen group. […] FIGS. 1H and 1I show β Cell mass (PBS-T, n = 15; FKGK18, n = 14) (FIG. 1H) and circulating insulin (n = 15 in each group) (FIG. 1I) were determined at sacrifice (PBS-T, 14-30 weeks of age; FKGK18, 16-36 weeks of age). FIGS. 1J and 1K show islet infiltration; paraffin sections (10 µm) of pancreas were prepared and stained with H&E. Percent infiltration for each islet was calculated as the value of noninfiltrated area subtracted from total islet area (% infiltrate = 100 × [(total area - noninfiltrated area)/(total area)]) using ImageJ software. […]
FIGS. 2A-2E show the effects of FKGK18-withdrawal regimen on T1D incidence and glucose tolerance, wherein female NOD mice were administered FKGK18 (20 mg/kg, 3 × weekly, n = 18) or vehicle (PBS-T, n = 17) starting at 10 days of age and until 14 weeks of age. […] FIGS. 2B and 2D show glucose tolerance test (GTT) results, assessed at 14 (FIG. 2B) and 25 (FIG. 2D) weeks of age (data are presented as mean ± SEM), as described in FIG. 1. […]

SMILES: O=C(CCCCc1ccc2ccccc2c1)C(F)(F)F [FKGK18]
- mice that remained diabetes free ([1]; FKGK18 20 mg/kg i.p. 3 times/week starting at 4 weeks of age, monitored up to 30 weeks, PBS-T 80% T1D incidence): 40%
- T1D incidence vs corresponding PBS-T group ([1]; FKGK18 20 mg/kg i.p. 3 times/week starting at 8 weeks of age, modest delay): not significantly different
- NOD that developed T1D ([1]; FKGK18 20 mg/kg i.p. 3 times/week starting at 10 days of age, by 25-30 weeks of age, vehicle 80%-90% diabetic, data not shown): 10%-15%
- decreased T1D incidence after FKGK18 withdrawal ([1]; FKGK18 from 10 days until 14 weeks of age, then withdrawn, monitored up to 30 weeks): not evident
- glucose tolerance, PBS-T vs FKGK18-withdrawn group ([2]; FKGK18 from 10 days until 14 weeks of age, GTT at 14 and 25 weeks of age): indistinguishable
- glucose tolerance vs PBS-T ([2]; FKGK18 started at 4 weeks of age, GTT at 14 weeks of age): No differences
- glucose tolerance vs PBS-T ([2]; FKGK18 started at 8 weeks of age, GTT at 25 weeks of age): No differences
